Like-named read-outs stand apart in the source and are kept apart here.
System: methylphenidate
Assay: Methylphenidate antagonism in mice (antagonism of biting of corrugated paper)
Format: in vivo, NMRI male mice
Settings: for ED50: Mus musculus; for ED50 / Methylphenidate antagonism, duration of peak effect: mice; for Methylphenidate antagonism, comparison in words (peak effect and duration): compared within the table, with known substances
Text: The test may briefly be described as follows:
As animals were used NMRI male mice weighting 18-25 grams.
5 × 2 mice are used for each dose level.
[…] At each time interval separate groups of mice were used. After administration of methylphenidate the mice are placed in the observation cages, 2 in each cage, where they remain for one hour. The cages are placed on corrugated paper, the corrugations facing upwards. It is examined whether or not the mice have been biting the corrugated paper. […] At each time interval separate groups of mice were used. The peak effect was determined for the test substances and also for a number of known neuroleptics.
The test was carried out on a number of the novel compounds of Formula I and on a number of closely related thiaxanthene derivatives.

[1] = ip, i.p. test substance, 24 h after administration, read-out: Methylphenidate antagonism, ED50 24 h i.p.
[2] = route p.c. [sic], at peak effect, read-out: Methylphenidate antagonism, Peak effect ED50 p.c.

SMILES	ED50 [1]	ED50 [2]	Methylphenidate antagonism, comparison in words (peak effect and duration)	Methylphenidate antagonism, duration of peak effect (i.p. test substance)
OCCN1CCN(CC=CC2c3ccccc3Sc3ccc(Cl)cc32)CC1 (stereo not drawn) [Lu 9-244, 2-Chloro-9-(3-(4-(2-hydroxyethyl)piperazin-1-yl)-1-propenyl) thioxanthene]	14.1 mg/kg	0.22 mg/kg	a more prolonged activity while the peak effect remains at the same level or is somewhat higher	10 h
CN(C)CC=CC1c2ccccc2Sc2ccc(Cl)cc21 (stereo not drawn) [Lu 8-030, 2-Chloro-9-(3-dimethylamino-1-propenyl)-thioxanthene]	> 20 mg/kg	5.5 mg/kg	a more prolonged activity while the peak effect remains at the same level or is somewhat higher	3 h
OCCN1CCN(CC=CC2c3ccccc3Sc3ccc(C(F)(F)F)cc32)CC1 (stereo not drawn) [Lu 9-212, 2-Trifluoromethyl-9-(3-(4-(2-hydroxyethyl)-piperazin-1-yl)-1propenyl) thioxanthene]	> 10 mg/kg	0.13 mg/kg	a more prolonged activity while the peak effect remains at the same level or is somewhat higher	10 h
OCCN1CCN(CC/C=C2/c3ccccc3Sc3ccc(Cl)cc32)CC1 [α-clopenthixol, 9-[3-(4-(2-hydroxyethyl)piperazinyl-(1))-propylidene]-2-chloro-thioxanthene, reference compound]	> 20 mg/kg	1.3 mg/kg	–	6 h
CN(C)CC/C=C1/c2ccccc2Sc2ccc(Cl)cc21 [α-chlorprothixen, trans-9-(3-dimethylaminopropylidene)-2-chloro-thioxanthene, reference compound]	> 20 mg/kg	2.6 mg/kg	–	2 h
CN(C)CC=CC1c2ccc(F)cc2Sc2ccc(C(F)(F)F)cc21 (stereo not drawn) [Lu 11-186, 2-Trifluoromethyl-6-fluoro-9-(3-dimethylamino-1-propenyl)-thioxanthene]	–	0.08 mg/kg	–	8 h
OCCC1CCN(CC=CC2c3ccc(F)cc3Oc3ccc(C(F)(F)F)cc32)CC1 (stereo not drawn) [Lu 11-200, 2-Trifluoromethyl-6-fluoro-9-(3-(4-(2-hydroxyethyl)piperidin-1-yl)-1-propenyl) xanthene]	1.6 mg/kg	0.2 mg/kg	–	17 h
OCCN1CCN(CC=CC2c3ccc(F)cc3Sc3ccc(C(F)(F)F)cc32)CC1 (stereo not drawn) [Lu 10-153, 2-Trifluoromethyl-6-fluoro-9-(3-(4-(2-hydroxyethyl)piperazine1-yl)-1-propenyl)thioxanthene]	0.06 mg/kg	0.03 mg/kg	unique in combining at the same time the most potent peak effect but also the long lasting effect	30 h
OCCN1CCN(CC/C=C2/c3ccccc3Sc3ccc(C(F)(F)F)cc32)CC1 [α-flupenthixol, 9-[3-(4-(2-hydroxyethyl)piperazinyl-(1))-propylidene]-2-trifluoromethyl-thioxanthene, reference compound]	> 20 mg/kg	0.22 mg/kg	–	6 h
OCCC1CCN(CC=CC2c3ccc(F)cc3Sc3ccc(C(F)(F)F)cc32)CC1 (stereo not drawn) [Lu 12-001]	0.1 mg/kg	0.2 mg/kg	–	72 h

— patent publication US4035503A, “Xanthene and thioxanthene derivatives, compositions thereof and a method of preparation thereof” (Kefalas A/S, priority 1973, dated 1977)
